Source: PMC10025185, “A continuous in silico learning strategy to identify safety liabilities in compounds used in the leather and textile industry” (Archives of Toxicology, 2023)
Like-named read-outs stand apart in the source and are kept apart here.

Assays:
zebrafish embryos = test system: zebrafish embryos
Text: In REACH, most of the mammalian tests for chemical safety assessment are related to reproductive toxicity (ECHA [2020]; Rovida and Hartung [2009]; Sellick [2011]) and consider complex molecular and cellular mechanisms determined in long-term experiments with very low throughput. To avoid the use of animals and to assay reproductive toxicity in a relevant 'non-animal' model adhering to the 3Rs rule, we used zebrafish embryos up to 120 hpf. Up to this developmental stage, the embryos are not considered animals according to European legislation (Sellick [2011]). When they reach the stage of independent feeding, zebrafish embryos become subject to regulations for animal experimentation. We performed a set of previously described experiments to cover a wide range of potential reprotoxic effects, including terato-carcinogenesis, developmental neurotoxicity, and endocrine disruption.
Zebrafish embryos obtained and maintained as described previously for toxicity determination were used to determine (I) terato-carcinogenesis assayed as previously informed (Selderslaghs et al. [2009], [2012]) with modifications. In brief, embryos were incubated for 0 hpf up to 120 hpf in the presence and absence of tested compounds. Each condition was assayed in triplicate with 12 embryos per condition per replicate. The appearance of selected characteristics and malformations with respect to normal development were quantified for the eyes, otoliths, heart, circulation, hatching, skeletal deformities, and body position. For each concentration tested, we assessed the mortality and the presence of malformations at 24, 48, 72, 96, and 120 hpf using a light microscope. When possible, the lethal effects (LC50) and terato-carcinogenic effects (EC50) were determined using the ToxRat software. Based on these values, a teratogenic index (TI) was calculated as LC50/EC50. Based on previous studies, we considered a compound to be a teratogen when TI > 2 at 120 hpf. When no TI could be calculated due to no malformations induction to a degree extensive enough to calculate the EC50 in the presence of high toxicity, the compound was considered a non-teratogen. (II) Neurotoxicity was assayed by evaluating the locomotor activity in embryos exposed to the tested compounds from 0 to 120 hpf using Zebrabox and Zebralab (ViewPoint). We tested three concentrations (24 embryos per concentration) below the NOEC to avoid readily toxic concentrations. After incubation with tested compounds for 120 hs in 96-well plates, the activity of larvae in response to transitions from dark to light was evaluated. The protocol involved an initial 10 min acclimation period inside the Zebrabox, followed by three cycles of light–dark of 10 min each. After the end of each cycle, the integrated activity of each embryo was registered. Statistical analysis was done using ANOVA, followed by the Tukey post hoc test. Differences were considered significant when p < 0.05. Dead embryos were not considered in the analysis. (III) The endocrine-disrupting effect in zebrafish embryos was assayed by real-time PCR as previously reported (Jarque et al. [2019]) with modifications. In brief, 0 hpf embryos (12 embryos per condition in triplicate) were incubated with selected compounds for up to 120 hpf. After incubation, treated (embryos incubated at the concentration right below the NOEC) and control embryos were collected in RNA later and kept at − 20°C until use. RNA was extracted from the samples using the RNeasy Mini Kit (QIAGEN) and was followed by cDNA synthesis using random primers and the AffinityScript Multi Temperature cDNA Synthesis Kit (Agilent Technologies).

[1] = test system: CHO-K1 (Chinese hamster ovary cells); format: cell-based; conditions: 6 h with or without S9, 24 h without S9
Experimental: The in vitro micronucleus test is a genotoxicity test for the detection of micronuclei in the cytoplasm of interphase cells. Tests were conducted in the presence of the cytokinesis blocker cytochalasin B with three different treatment schedules: (i) short treatment for 6 h; (ii) short treatment for 6 h in the presence of an exogenous source of metabolic activation (cofactor supplemented S9 liver fraction); and (iii) extended treatment for 24 h.
CHO-K1 (Chinese hamster ovary cells, ATCC Item Number CCL-61) were cultured in DMEM F-12 containing 10% foetal bovine serum and 100 units/ml penicillin/100 μg/ml streptomycin (all from Sigma-Aldrich, St Louis, USA). Cells were seeded at 3000 cells/well in a collagen-coated 96-well plate in 100 μl. After 24 h, cells were incubated with CellTracker Orange CMTMR cellular dye solution (Invitrogen, Waltham, USA) for 1 h. Cells were then treated with compounds for 6 h, with or without S9 metabolic activation, or 24 h without S9 metabolic activation. […] After the 6-h compound treatment, cells were incubated with cytochalasin B (Alfa Aesar, Kandel, Germany) for 24 h. In case of 24-h treatment, cells were incubated with compounds in the presence of cytochalasin B and harvested after treatment. Benzo(a)pyrene, mitomycin C, and colchicine were used as positive controls for 6 h, with or without metabolic activation or 24 h treatments, respectively. […] After several washes with BupH-modified DPBS, cells were analysed in an Operetta High-Content Imaging System (PerkinElmer, Waltham, USA). […] Statistical significance was determined with the ANOVA test with significance level adjusted to p < 0.05.

[2] = 0 to 120 hpf, teratogen when TI > 2

Compound | Reprotoxicity (R) Teratogen (zebrafish embryos; in vivo) | Micronucleus assay (M) [1] | Reprotoxicity (R) Experimental conclusion (zebrafish embryos; in vivo) | Reprotoxicity (R) Teratogen (zebrafish embryos; [2]) | Reprotoxicity (R) Experimental conclusion (zebrafish embryos; positive in any of the three assays)
CCCCC(CC)CN (stereo not shown) [2-Ethylhexylamine] | No | Negative | – | – | –
CNC(=O)c1cc(Cl)ccn1.Cl [4-Chloro-N-methylpyridine-2-carboxamide hydrochloride (1:1)] | No | Negative | No | – | –
CCN(CC)c1ccc(N=Nc2c(Cl)cc([N+](=O)[O-])cc2[N+](=O)[O-])c(NC(C)=O)c1 [N-[2-[(2-chloro-4,6-dinitrophenyl)azo]-5-(diethylamino)phenyl]acetamide] | – | Negative | – | No | –
O=C(OCCc1ccccc1)c1ccccc1 [Phenethyl benzoate] | No | Negative | No | – | –
Reaction mass of cis-4-(isopropyl) cyclohexanemethanol and trans-4-(isopropyl) cyclohexanemethanol | – | Negative | – | No | No
